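A five-concentration, 48-hour dose response in 96-well plates underlies each endpoint, interpolated linearly between surrounding concentrations. GI50 is the concentration that inhibits growth by half. TGI denotes the concentration required for complete inhibition of growth.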

Test systems include U251 CNS; KM12 colon; MALME-3M melanoma; CCRF-CEM leukemia; RXF 393 renal; HL-60(TB) leukemia; NCI-H522 lung; HCC-2998 colon; CAKI-1 renal; SF-295 CNS.
Assay in all cases: NCI anticancer screen, dose series, 48 h

`COc1cc(-c2nn(C)nc2-c2cc3ccccc3s2)cc(OC)c1OC`: the GI50 in the assay with U251 CNS is 0.0783 µM; with KM12 colon it was 0.0549 µM; in the assay with MALME-3M melanoma it was 16.9 µM; in the assay with CCRF-CEM leukemia it was 0.22 µM; in the assay on RXF 393 renal, 0.286 µM; in the assay with HL-60(TB) leukemia, 0.0488 µM. Besides, the GI50 was 0.0232 µM with NCI-H522 lung, 0.407 µM with HCC-2998 colon, 3.77 µM in the assay with CAKI-1 renal and 0.036 µM in the assay with SF-295 CNS. The TGI was 30.5 µM in the assay on U251 CNS; greater than 100 µM with KM12 colon; greater than 100 µM in the assay on MALME-3M melanoma; greater than 100 µM in the assay on CCRF-CEM leukemia; 46.9 µM with RXF 393 renal; 1.07 µM with HL-60(TB) leukemia. Further, the TGI in the assay on NCI-H522 lung is 0.0787 µM; in the assay with HCC-2998 colon it was greater than 100 µM; in the assay with CAKI-1 renal it was greater than 100 µM; in the assay on SF-295 CNS, 15.3 µM.

On to `CCOc1ccc(/C=N/Nc2cc(C)nc3ccc(Cl)cc23)cc1`, for which the GI50 in the assay with U251 CNS was 1.91 µM; in the assay with KM12 colon it was 1.89 µM; in the assay on MALME-3M melanoma, 2.02 µM; in the assay on CCRF-CEM leukemia it was 1.47 µM; in the assay on RXF 393 renal, 1.66 µM; in the assay with HL-60(TB) leukemia, 1.86 µM. Further, the GI50 in the assay with NCI-H522 lung was 1.73 µM; in the assay on HCC-2998 colon it was 2.19 µM; with CAKI-1 renal, 1.78 µM; in the assay with SF-295 CNS, 1.76 µM. The TGI with U251 CNS came to 3.38 µM; with KM12 colon it was 3.65 µM; in the assay with MALME-3M melanoma it was 3.6 µM; in the assay with CCRF-CEM leukemia it was 3.76 µM; in the assay on RXF 393 renal, 3.06 µM; in the assay on HL-60(TB) leukemia, 3.73 µM. Also, the TGI in the assay on NCI-H522 lung worked out at 3.29 µM; in the assay with HCC-2998 colon, 3.7 µM; with CAKI-1 renal, 3.2 µM; with SF-295 CNS, 3.24 µM.

For `Cc1ccccc1NC(=O)N/C(N)=N/c1nc2ccccc2s1`, the GI50 was 0.0547 µM in the assay with U251 CNS; 0.0399 µM in the assay with KM12 colon; 0.0693 µM in the assay with MALME-3M melanoma; 0.0402 µM with CCRF-CEM leukemia; 0.03 µM in the assay on RXF 393 renal; 0.0285 µM in the assay on HL-60(TB) leukemia. Further, the GI50 with NCI-H522 lung is 0.0427 µM; with HCC-2998 colon, 0.145 µM; in the assay with CAKI-1 renal, 0.0499 µM; with SF-295 CNS, 0.0292 µM. For the same molecule, the TGI in the assay on U251 CNS was greater than 100 µM; in the assay on KM12 colon it was greater than 100 µM; in the assay on MALME-3M melanoma, greater than 100 µM; in the assay on CCRF-CEM leukemia, greater than 100 µM; with RXF 393 renal, 0.464 µM; with HL-60(TB) leukemia, 0.15 µM. The TGI with NCI-H522 lung is greater than 100 µM; in the assay with HCC-2998 colon, greater than 100 µM; with CAKI-1 renal, greater than 100 µM; with SF-295 CNS, 1.17 µM.

Turning to `COC(=O)C1=C(C(=O)Nc2cccnc2)C2OC1(C(Cc1ccccc1)Oc1ccccc1)C1OC21` (stereo not given), the GI50 was 10.7 µM with U251 CNS; 14.6 µM with KM12 colon; 1.6 µM in the assay on MALME-3M melanoma; 0.36 µM in the assay with CCRF-CEM leukemia; 1.71 µM in the assay with RXF 393 renal; 0.569 µM with HL-60(TB) leukemia. Also, the GI50 was 1.37 µM with NCI-H522 lung, 14.7 µM with HCC-2998 colon, 1.78 µM in the assay on CAKI-1 renal and 14.6 µM with SF-295 CNS. Further, the TGI in the assay with U251 CNS was determined as 22.6 µM; in the assay on KM12 colon, 33.3 µM; in the assay on MALME-3M melanoma, 3.31 µM; in the assay on CCRF-CEM leukemia, 2.14 µM; in the assay with RXF 393 renal it was 3.22 µM; in the assay with HL-60(TB) leukemia, 2.75 µM. Moreover, the TGI with NCI-H522 lung was determined as 2.95 µM; in the assay with HCC-2998 colon, 30.3 µM; with CAKI-1 renal it was 4 µM; in the assay with SF-295 CNS, 28.6 µM.

With `Clc1ccc(-c2nc(-c3c[nH]c4ncccc34)cs2)cc1`, the GI50 in the assay on U251 CNS, in the assay with KM12 colon, in the assay on MALME-3M melanoma, with CCRF-CEM leukemia, with RXF 393 renal and in the assay with HL-60(TB) leukemia was greater than 100 µM throughout. In addition, the GI50 with NCI-H522 lung, in the assay with HCC-2998 colon, in the assay on CAKI-1 renal and with SF-295 CNS was greater than 100 µM each time. The TGI in the assay with U251 CNS, in the assay with KM12 colon, in the assay on MALME-3M melanoma, in the assay on CCRF-CEM leukemia, in the assay on RXF 393 renal and in the assay on HL-60(TB) leukemia was greater than 100 µM in each case. Further, the TGI in the assay with NCI-H522 lung, in the assay on HCC-2998 colon, in the assay on CAKI-1 renal and in the assay with SF-295 CNS was greater than 100 µM throughout.

Turning to `S=c1cn[nH]c2ccc(Br)cc12`, the TGI with U251 CNS was greater than 100 µM; in the assay on KM12 colon, greater than 100 µM; in the assay with MALME-3M melanoma, 79 µM; with CCRF-CEM leukemia, greater than 100 µM; in the assay with RXF 393 renal, 70.7 µM; in the assay on HL-60(TB) leukemia, greater than 100 µM. The TGI with NCI-H522 lung was 91.6 µM; in the assay on HCC-2998 colon, greater than 100 µM; with CAKI-1 renal, greater than 100 µM; in the assay on SF-295 CNS it was greater than 100 µM.

Turning to `Nc1nn(C(=O)Nc2ccc(Cc3ccccc3)cc2)c2ccc(Cl)cc12`, the GI50 with U251 CNS was 13 µM; in the assay on KM12 colon, 0.0755 µM; in the assay with MALME-3M melanoma, 12 µM; with CCRF-CEM leukemia, 3.08 µM; with RXF 393 renal, 15.1 µM; with HL-60(TB) leukemia, 6.57 µM. Moreover, the GI50 in the assay with NCI-H522 lung is 7.96 µM; in the assay on HCC-2998 colon, 0.211 µM; with CAKI-1 renal it was 0.212 µM; with SF-295 CNS, 0.122 µM. Besides, the TGI with U251 CNS was 29.1 µM; with KM12 colon, greater than 100 µM; in the assay on MALME-3M melanoma, greater than 74 µM; in the assay on CCRF-CEM leukemia, greater than 58.7 µM; in the assay with RXF 393 renal it was 34.1 µM; in the assay with HL-60(TB) leukemia, 44.6 µM. In addition, the TGI in the assay on NCI-H522 lung was greater than 100 µM; with HCC-2998 colon it was 1.48 µM; in the assay with CAKI-1 renal, greater than 100 µM; with SF-295 CNS, 19.9 µM.

As for `CCS(=O)(=O)c1ccc(OC)c(Nc2ncc(-c3cccc(-c4ccccc4F)c3)o2)c1`, the GI50 in the assay with U251 CNS was 12.1 µM; with KM12 colon, 0.833 µM; in the assay on MALME-3M melanoma, greater than 25 µM; in the assay on CCRF-CEM leukemia it was greater than 25 µM; in the assay with RXF 393 renal it was 2.45 µM; with HL-60(TB) leukemia it was greater than 25 µM. Also, the GI50 with NCI-H522 lung was 10.6 µM; in the assay on HCC-2998 colon, greater than 25 µM; in the assay on CAKI-1 renal, 10.8 µM; with SF-295 CNS it was 10.1 µM. Besides, the TGI with U251 CNS was greater than 25 µM; in the assay with KM12 colon it was greater than 25 µM; in the assay on MALME-3M melanoma it was greater than 25 µM; in the assay on CCRF-CEM leukemia it was greater than 25 µM; in the assay with RXF 393 renal, greater than 17.9 µM; with HL-60(TB) leukemia it was greater than 25 µM. Further, the TGI in the assay with NCI-H522 lung, in the assay with HCC-2998 colon, in the assay with CAKI-1 renal and in the assay on SF-295 CNS was greater than 25 µM each time.

The values above are taken from PubChem BioAssay (NCI).
